Laboratory results taken from US20110250184A1, “METHODS FOR DETERMINING EFFICACY OF A THERAPEUTIC REGIMEN AGAINST DELETERIOUS EFFECTS OF CYTOTOXIC AGENTS IN HUMAN” (priority 2008, published 2011).

System: human bone marrow cells
Test: In vitro radiation protection of human bone marrow cells (methocult CFU)
Type: cell-based
Procedure: FIG. 3. In vitro radiation protection of human bone marrow cells. Human bone marrow cells were treated with increasing concentrations of ON 01210.Na for 3 hours, and then irradiated with increasing doses of ionizing radiation. The cells were plated into methocult and the total number of CFUs was determined 14 days later.
Radiation protection assays were then performed (FIG. 3). Cells were treated with ON 01210.Na for 3 hours, irradiated, and plated in methocult. The total number of colony forming units was determined 14 days later. […] This compared very favorably when analyzed against protection studies using amifostine as a positive control.
Human bone marrow cells were treated with increasing concentrations of ON 01210.Na for 3 hours, and then irradiated with increasing doses of ionizing radiation. The cells were plated into methocult and the total number of CFUs was determined 14 days later.
When we plotted the survival curve at the optimal concentration of ON 01210.Na (FIG. 3C) we were able to calculate a dose reduction factor (DRF) of 1.6. We also tested the radiation protection activity of amifostine. Amifostine concentrations were selected that closely mimicked the therapeutic plasma concentrations. […] The calculated DRF value of 1.5 was determined from these experiments.

Compound: NCCCNCCSP(=O)(O)O [amifostine, reference compound]
- optimal concentration for radiation protection (amifostine): 0.25 mM
- dose reduction factor (DRF) (amifostine 0.25 mM (optimal)): 1.5
- range of concentrations that protected cells (data not shown): narrow range of concentrations
